For data set [1], the system named is Klebsiella pneumoniae 7463kpn-610 (ESBLs). The experiment in a line: In vitro antibacterial activity on clinically separated CRE strain, agar dilution MIC. It counts as cell-based. The note with it: first Table 4, 7463kpn-610 Klebsiella pneumoniae. The text has this:
(§1) Experimental strains: all experimental standard bacterial strains for enzyme production were purchased from ATCC, and the clinically separated CRE strain was purchased from Southwest Hospital of the Third Military Medical University.
(§2) Experimental Method: Agar dilution method, referring to M100-S23: Performance Standards for Antimicrobial Susceptibility Testing: Twenty-Third Informational Supplement (Clinical And Laboratory Standards Institute, 2013). Minimal inhibitory concentration (MIC, μg/mL) was calculated.

Data set [2] has as its system Enterobacter cloacae 7513ecl-314 (AmpC). Described as above. It counts as cell-based. Particulars: first Table 4, 7513ecl-314 Enterobacter cloacae.
Text: as §1, §2

The test system of data set [3] is Klebsiella pneumoniae 7484kpn-631 (IMP, ESBLs). Described as above. Particulars: first Table 4, 7484kpn-631 Klebsiella pneumoniae. It counts as cell-based.
Text: as §1, §2

The subject of data set [4] is Escherichia coli BAA-196 (TEM-10). The experiment in a line: In vitro antibacterial activity, agar dilution MIC. It counts as cell-based.
Text: as §1, §2
(In general: In agar dilution the substance is mixed into plates at graded concentrations.)

Data set [5] concerns Escherichia coli BAA-2523 (OXA-48). Nature of the data set: In vitro antibacterial activity, agar dilution MIC. It counts as cell-based.
Text: as §1, §2

Data set [6] concerns Klebsiella pneumoniae BAA-1900 (KPC). Nature of the data set: In vitro antibacterial activity, agar dilution MIC. It counts as cell-based.
Text: as §1, §2

Data set [7] has as its system Klebsiella pneumoniae BAA-2146 (NDM-1). Nature of the data set: In vitro antibacterial activity, agar dilution MIC. In kind it is cell-based.
Text: as §1, §2

For data set [8], the system named is Escherichia coli BAA-2452 (NDM-1). Nature of the data set: In vitro antibacterial activity, agar dilution MIC. It counts as cell-based.
Text: as §1, §2

Data set [9] concerns Klebsiella pneumoniae BAA-2524 (OXA-48). Nature of the data set: In vitro antibacterial activity, agar dilution MIC. In kind it is cell-based. Particulars: Klebsiella pneumoniae, BAA2524.
Text: as §1, §2

In data set [10] the test system is Klebsiella oxytoca ATCC-51983 (SHV-5). Nature of the data set: In vitro antibacterial activity, agar dilution MIC. It counts as cell-based. Particulars: Klebsiella oxytoca, ATCC51983.
Text: as §1, §2

Data set [11] deals with Enterobacter hormaechei BAA-2082 (KPC). Nature of the data set: In vitro antibacterial activity, agar dilution MIC. Particulars: Enterobacter hormaechei, BAA2082. It counts as cell-based.
Text: as §1, §2

For a further data set, the target named is T1, KPC-2 (Klebsiella pneumoniae, UniProt Q9F663).
T1 construct: purchased
T1 sequence (Q9F663 25-293, looked up, species assumed): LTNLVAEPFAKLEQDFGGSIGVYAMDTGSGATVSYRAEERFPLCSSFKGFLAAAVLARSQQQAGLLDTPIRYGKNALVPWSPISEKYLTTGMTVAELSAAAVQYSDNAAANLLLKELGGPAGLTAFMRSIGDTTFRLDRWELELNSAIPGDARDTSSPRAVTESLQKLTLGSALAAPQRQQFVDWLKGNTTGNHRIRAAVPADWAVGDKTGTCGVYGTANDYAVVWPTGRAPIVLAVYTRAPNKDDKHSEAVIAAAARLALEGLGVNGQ
Nature of the data set: β-lactamase inhibition, Nitrocefin hydrolysis. It counts as biochemical. As for the experimental part: (§3) Nitrocefin, a kind of cephalosporin antibiotics, is sensitive to most of β-lactamases, and changes in color after being hydrolyzed. The hydrolysis rate of Nitrocefin was measured by real-time recording corresponding absorbance of reaction system. β-Lactamase inhibitors could inhibit hydrolysis of the enzymes to Nitrocefin, and reduce hydrolysis rate. By measuring reaction rates in the same reaction system under different inhibitor concentrations, the IC50 (half maximal inhibitory concentration) values of inhibitors were calculated.
(§4) Nitrocefin was dissolved in DMSO to form a solution with concentration of 2 mM, which was sub-packaged and stored at −20° C. The concentration of purchased β-lactamases mother liquor was 1 mg/mL, and the mother liquor was dissolved in 50% glycerol. A part of mother liquor was taken and diluted by 1000 times in reaction solution, sub-packaged and stored at ˜20° C.
(§5) The compounds to be tested were dissolved in DMSO to form a mother liquor with concentration of 10 mM. If not used that day, the mother liquor was stored at −20° C. Its test final concentrations were: 100 μM, 25 μM, 6.25 μM, 1.563 μM, 390.6 nM, 97.66 nM, 24.41 nM, 6.10 nM, 1.53 nM, 0.381 nM, 0.095 nM.

The target in a further data set is T2, AmpC (UniProt P05364).
T2 construct: The concentration of purchased β-lactamases mother liquor was 1 mg/mL, and the mother liquor was dissolved in 50% glycerol
The experiment in a line: β-lactamase inhibition, Nitrocefin hydrolysis. It counts as biochemical. The note with it: read-out: IC50 Type C AmpC; Experiment 1; enzyme 0.4 nM, Nitrocefin 0.1 mM. As for the experimental part:
as §3, §4, §5

Another data set concerns the target T3, TEM-1 (Escherichia coli, UniProt P62593).
T3 construct: purchased
Nature of the data set: β-lactamase inhibition, Nitrocefin hydrolysis. It counts as biochemical. Particulars: Experiment 1; enzyme 0.25 nM, Nitrocefin 0.1 mM; read-out: IC50 ESBLs type TEM-1. As for the experimental part: as §3, §4, §5

Data set [12] concerns Enterobacter cloacae BAA-2341 (KPC). Nature of the data set: In vitro antibacterial activity, agar dilution MIC. In kind it is cell-based. The note with it: Enterobacter cloacae, BAA2341.
Text: as §1, §2

The nature of data set [13]: Pharmacokinetics in SD rats (iv). It counts as in vivo, SD rat. Particulars: male, plasma; for half-life / clearance: SD, rat, iv, 1 mg/kg; for clearance: read-out: Cl—obs (converted); for Vd / AUC(0-t): SD rat, iv 1 mg/kg; for Vd: apparent volume of distribution, read-out: Vss—obs; for AUC(0-t): area under the curve 0→t. Here is the method:
Experimental Example 1: Pharmacokinetics Experiments of the Compound of the Present Invention in Rats Test animals: 3 male SD rats, bodyweight 200-250 g for each animal. Test samples were administrated via intravenous push (iv), dosage of administration was 1 mg/kg, volume of administration was 2 mL/kg. Collecting time points: iv: after administration 0.083 […]. At each time point, about 100 μL of whole blood was sampled via caudal vein, added to K2EDTA anti-coagulative tube, centrifuged in a refrigerated centrifuge under 8000 rpm for 6 min to separate plasma, and the plasma was stored in -80° C. refrigerator. Plasma (20 μL) was taken and placed in a 96-well deep-well plate, and internal standard solution (300 μL) was added, subjected to vortex for 5 min, then centrifuged under 12000 rpm for 5 min, and then supernatant (200 μL) was taken and subjected to vortex for 3 min; to be analyzed by LC-MS/MS. Plasma (30 μL) was taken and placed in 1.5 mL EP tube, and internal standard solution (300 μL) was added, subjected to vortex for 5 min, then centrifuged under 12000 rpm for 5 min, and then supernatant (200 μL) was taken and subjected to vortex for 3 min; to be analyzed by LC-MS/MS. Plasma (30 μL) was taken and placed in a 96-well deep-well plate, and internal standard solution (200 μL) was added, subjected to vortex for 5 min, then centrifuged under 4000 rpm for 20 min, and then supernatant (100 μL) was taken and water (100 μL) was added, and subjected to vortex homogeneously; to be analyzed by LC-MS/MS.

The target of another data set is T4, OXA-10 (Pseudomonas aeruginosa, UniProt P14489).
T4 construct: purchased
T4 sequence (P14489 20-266, species assumed): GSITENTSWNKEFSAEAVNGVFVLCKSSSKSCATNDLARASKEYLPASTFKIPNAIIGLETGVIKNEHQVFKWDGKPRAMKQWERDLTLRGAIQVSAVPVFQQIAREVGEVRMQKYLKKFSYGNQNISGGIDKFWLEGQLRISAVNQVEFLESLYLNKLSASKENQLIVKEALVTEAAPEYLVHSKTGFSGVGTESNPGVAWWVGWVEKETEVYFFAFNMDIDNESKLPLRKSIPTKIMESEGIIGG
Nature of the data set: β-lactamase inhibition, Nitrocefin hydrolysis. Particulars: Experiment 3; enzyme 10 nM, Nitrocefin 0.1 mM; read-out: IC50 Type D OXA-10. In kind it is biochemical. As for the experimental part:
as §3, §4, §5

[14] abbreviates: BAA196, first Table 4, BAA-196 Escherichia coli, TEM-10, read-out: MIC.
The mark [15] stands for this setting: BAA2523, first Table 4, BAA-2523 Escherichia coli, OXA-48, read-out: MIC.
Setting [16] is: BAA1900, first Table 4, BAA-1900 Klebsiella pneumoniae, KPC, read-out: MIC.
The mark [17] stands for this setting: BAA2146, first Table 4, BAA-2146 Klebsiella pneumoniae, NDM-1, read-out: MIC.
Where [18] appears, read: BAA2452, first Table 4, BAA-2452 Escherichia coli, NDM-1, read-out: MIC.
Where [19] appears, read: Experiment 1, Nitrocefin 0.1 mM, read-out: IC50 Type A KPC-2.

This is an account of results in patent publication US10167283B2, “β-lactamase inhibitors and uses thereof” (priority 2015, dated 2019).

Where a name gives a salt, the structure may show the parent alone. Read-outs that look alike come from different tables or passages of the source.

T3 sequence (P62593 24-286 limits assumed): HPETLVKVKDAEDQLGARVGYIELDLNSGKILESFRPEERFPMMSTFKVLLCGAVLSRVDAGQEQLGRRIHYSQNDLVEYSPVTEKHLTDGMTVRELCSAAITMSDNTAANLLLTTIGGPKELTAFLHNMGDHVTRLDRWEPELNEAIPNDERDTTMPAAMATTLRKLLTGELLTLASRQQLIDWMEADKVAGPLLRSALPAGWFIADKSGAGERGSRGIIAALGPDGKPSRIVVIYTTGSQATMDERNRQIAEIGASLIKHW

The term MIC denotes the smallest concentration in the dilution series that meets the test's criterion for growth inhibition. Take `CN1CC2(CC(NC(=O)[C@H]3CC[C@@H]4CN3C(=O)N4OS(=O)(=O)O)C2)C1` [Compound 6-2, (2R,5R)-2-((2-methyl-2-azaspiro[3,3]heptan-6-yl)carbamoyl)-7-oxo-1,6-diazabicyclo[3,2,1]octan-6-yl hydrogen sulfate]: the MIC in data set [1] stood at 8 µg/mL; in [2], 4 µg/mL; in [3], 4 µg/mL; in data set [4] (setting [14]), 8 µg/mL; in data set [5] (setting [15]), 8 µg/mL; in data set [6] (setting [16]), 8 µg/mL. Also, the MIC in [7] (setting [17]) was 16 µg/mL; in [8] (setting [18]), 8 µg/mL.
For the compound `O=C(NC1CC2(C1)CN(C1CC1)C2)[C@@H]1CC[C@@H]2CN1C(=O)N2OS(=O)(=O)O` [Compound 13, (2S,5R)-2-(2-cyclopropyl-2-azaspiro[3.3]heptan-6-ylcarbamoyl)-7-oxo-1,6-diazabicyclo[3.2.1]octan-6-yl hydrogen sulfate], the MIC in [9] came to 4 µg/mL; in [4] (BAA196), 16 µg/mL; in [5] (BAA2523), 4 µg/mL; in [6] (BAA1900), 8 µg/mL; in data set [10], 8 µg/mL; in [8] (BAA2452) it was 4 µg/mL. Also, the MIC in data set [11] is 16 µg/mL.
A word on the IC50: it is the concentration needed to halve the response being measured. On to `O=C(NC1C2CCC1CNC2)[C@@H]1CC[C@@H]2CN1C(=O)N2OS(=O)(=O)O` (stereo partly drawn) [Compound 5, (2S,5R)-2-((3-azabicyclo[3.2.1]octan-8-yl)carbamoyl)-7-oxo-1,6-diazabicyclo[3.2.1]octan-6-yl hydrogen sulfate], for which the IC50 on KPC-2 (setting [19]) worked out at 27.4 nM; at AmpC, 84.1 nM; on TEM-1 it was 66.5 nM.
`O=C(NC1CC2(C1)CN(CC1CC1)C2)[C@@H]1CC[C@@H]2CN1C(=O)N2OS(=O)(=O)O` [Compound 14, sodium (2S,5R)-2-((2-(cyclopropylmethyl)-2-azaspiro[3.3]heptan-6-yl)carbamoyl)-7-oxo-1,6-diazabicyclo[3.2.1]octan-6-yl sulfate]: the MIC in data set [9] was found to be 4 µg/mL; in [12] it was 8 µg/mL; in [4] (BAA196) it was 8 µg/mL; in data set [5] (BAA2523), 2 µg/mL; in [6] (BAA1900) it was 4 µg/mL; in data set [7] (BAA2146), 8 µg/mL. For the same compound, the results for the MIC in [10], in [8] (BAA2452) and in data set [11] were 8 µg/mL, 2 µg/mL and 8 µg/mL, respectively.
The half-life is how long it takes for the measured level to halve. A low value points to fast loss. By AUC(0-t) is commonly meant the area under the concentration-time curve up to a stated or last time point. A higher AUC(0-t) goes with more exposure. Take `O=C(NC1CC2CCC(C1)N2)[C@@H]1CC[C@@H]2CN1C(=O)N2OS(=O)(=O)O` (stereo partly drawn) [Compound 4, (2S,5R)-2-((8-azabicyclo[3.2.1]octane-3-yl)carbamoyl)-7-oxo-1,6-diazabicyclo[3.2.1]octan-6-yl hydrogen sulfate]: in [13], the half-life was 2.04 h, the clearance is 12.1 mL/min/kg, the Vd came out at 0.348 L/kg and the AUC(0-t) was 1390 ng·h/mL. Further, the IC50 on KPC-2 was found to be 23.1 nM. Also, the IC50 at TEM-1 worked out at 20.5 nM.
On to `O=C(NC1CC2(CNC2)C1)[C@H]1CC[C@@H]2CN1C(=O)N2OS(=O)(=O)O` [Compound 2-2, (2R,5R)-2-((2-azaspiro[3.3]heptan-6-yl)carbamoyl)-7-oxo-1,6-diazabicyclo[3.2.1]octan-6-yl hydrogen sulfate], for which the MIC in data set [1] stood at 2 µg/mL; in data set [2] it was 2 µg/mL; in data set [3] it was 2 µg/mL; in data set [4] (setting [14]), 4 µg/mL; in [5] (setting [15]), 4 µg/mL; in data set [6] (setting [16]) it was 4 µg/mL. Further, the MIC in [7] (setting [17]) stood at 2 µg/mL; in data set [8] (setting [18]), 4 µg/mL.
Regarding `CCN1CC2(CC(NC(=O)[C@@H]3CC[C@@H]4CN3C(=O)N4OS(=O)(=O)O)C2)C1` [Comp. 7 sodium salt, sodium (2S,5R)-2-((2-ethyl-2-azaspiro[3.3]heptan-6-yl)carbamoyl)-7-oxo-1,6-diazabicyclo[3.2.1]octan-6-yl sulfate], the MIC turned out to be 8 µg/mL in data set [9]; 8 µg/mL in data set [12]; 8 µg/mL in data set [4] (BAA196); 4 µg/mL in data set [5] (BAA2523); 8 µg/mL in data set [6] (BAA1900); 4 µg/mL in data set [8] (BAA2452). In [11], this compound yielded an MIC of 8 µg/mL.
For `CN1CC2(CC(NC(=O)[C@@H]3CC[C@@H]4CN3C(=O)N4OS(=O)(=O)O)C2)C1` [Compound 6 sodium salt, sodium (2S,5R)-2-((2-methyl-2-azaspiro[3.3]heptan-6-yl)carbamoyl)-7-oxo-1,6-diazabicyclo[3.2.1]octan-6-yl sulfate], in data set [13], the half-life was 0.25 h, the clearance is 9.08 mL/min/kg, the Vd was 0.219 L/kg and the area under the curve AUC(0-t) is 1840 ng·h/mL. Besides, the concentration for half-maximal inhibition (IC50) on OXA-10 was determined as 21700 nM.
For `O=C(NC1CC2(CCNCC2)C1)[C@@H]1CC[C@@H]2CN1C(=O)N2OS(=O)(=O)O` [Compound 1, (2S,5R)-2-(7-azaspiro[3.5]nonan-2-ylcarbamoyl)-7-oxo-1,6-diazabicyclo[3.2.1]octan-6-yl hydrogen sulfate], in [13], the half-life was 1.01 h, the clearance was 7.77 mL/min/kg, the Vd was found to be 0.294 L/kg and the AUC(0-t) was 2330 ng·h/mL. Besides, the IC50 on KPC-2 (setting [19]) came to 81.7 nM. Also, the IC50 at AmpC is 22.9 nM. The IC50 at TEM-1 is 28.2 nM.
